Results published in patent US10898522B2, “Compositions and methods for treating graft versus host disease” (Children's Research Institute, Children's National Medical …, priority 2015, dated 2021).
“Also recorded” adds a separate entry of the source.

Key:
[1] = tested on: FoxP3+ human T cells (Treg); experiment: FACS of FoxP3+ cells within CD4 T cell subset from spleen and BM of GvHD mice; format: in vivo; settings: one dose of 100 μg/kg echinomycin vs vehicle
Source text: (§1) FIG. 4. HIF-1α accumulates in a high proportion of human T cells derived from spleen and BM of the recipients of human BMC: Impact of echinomycin. Panel A. Representative FACS plots showing the accumulation of HIF-1α in T cells from the spleen and BM of GvHD mice. Spleen and BM cells were isolated from the spleens and BM of GvHD mice, stained with anti-human CD45, CD4, CD8, and then intracellular stained with anti-human HIF-1α. Panel B. Representative FACS plots showing the accumulation of HIF-1α in all human cells from spleens of GvHD mice. Spleen cells were isolated from the spleens of GvHD mice, stained with anti-human CD45, CD4, CD8, and then intracellular stained with anti-human HIF-1α. FACS analysis was performed to determine the percentage of HIF-1α positive cells in CD45^+CD4^+CD8-, CD45^+CD4-D8^+ and CD45^+CD4-D8-subpopulations. Panel C. Representative FACS plots showing the percentage of HIF-1α positive T cells in spleen of GvHD mice after echinomycin treatment. […]
(§2) Spleens were gently grinded with frosted objective slides and bone marrow was dissociated with syringes to obtain single-cell suspensions and passed through a nylon cell strainer, washed three times with RPMI-1640, labeled with antibodies and analyzed for the presence of different human cell populations. […]

HIF-1α [2] = experiment: Intracellular FACS staining of HIF-1α in human T cells from spleen of GvHD mice after echinomycin; format: in vivo
Source text: as §1, §2

[3] = tested on: HIF-1α / leukemia stem cells; settings: in vivo; cited from earlier work
humanized GvHD mice = experiment: Treatment of humanized GvHD mice (newborn NSG pups transplanted with human BM cells) with echinomycin; format: in vivo, mouse
Protocol: FIG. 5. Sustained treatment of echinomycin protects mice against GvHD and eliminates expanded human leukocytes and inflammation. Panel A. Dosing regimen of echinomycin treatment for humanized GvHD mice. The day that mice were transplanted with human BM cells is defined as day 0. Each arrow represents one echinomycin treatment. The dose for each treatment is 10 μg/kg via intraperitoneal injection. Panel B. Longitudinal analysis of clinical representation of an echinomycin-treated mice. Panel C. Representative FACS plots showing the percentage of human CD45^+ cells in PBL of GvHD mice before and after echinomycin treatment. Data is one representative file from 3 mice and representative of three independent experiments. […] Data are representative of three independent experiments.
FIG. 6. Echinomycin protects mice against lethal GvHD. Panel A. Newborn NSG pups were transplanted with human 5×10^5 BM cells. The mice were treated with the dosing regimen of echinomycin listed in FIG. 5, Panel A. Panel B. Newborn NSG pups were transplanted with human 3×10^5 BM cells. The mice were treated with the dosing regimen of echinomycin listed in FIG. 5, Panel A, except treatment is started at day 17 rather than day 27. […] Data are representative of three independent experiments.
Human bone marrow mononuclear cells were isolated from healthy human adult bone marrow using density gradient separation were purchased from Stemcell Technologies (Vancouver, Canada) and Lonza (Walkersville, Md., USA). Human CD3^+ cells from BM were sorted from human BM cells using BD Influx (BD Biosciences). Cells were thawed, counted and re-suspended in 1×PBS in a concentration of 0.1-0.5×10^6 per 30 μl. 0.1-0.5×10^6 cells were transplanted via intrahepatic injection into irradiated (1.30 Gy) newborn NSG pups. Human CD45^+ cells in PBMC of recipients were detected by FACS analysis at day 17 to 20 after transplantation.
Peripheral blood was collected by sub-mandibular bleeding at different times after transplantation of human BM cells. Fluorochrome-labeled antibodies were directly added into whole blood. After 30 min of staining, the unbound antibodies were washed away and the red blood cells were lysed with BD FACS™. The stained cells were analyzed with BD FACS Canto II flow cytometry.
Immunohistochemistry was performed on tissue sections from skin, liver, lung, spleen, and kidney of humanized NSG mice. Sections were fixed with 4% paraformaldehyde and dehydrated with graded alcohol. After treatment with heated citrate buffer for antigen retrieval, sections were blocked for endogenous peroxidase activity. Sections were then incubated in 10% goat serum followed by primary antibodies at 4° C. overnight. Fixed samples were stained with the following antibodies, anti-human CD45 (MEM-28) and CD3 (ab828, Abcam PLC, Cambridge, Mass.), for detection of infiltrated human cells. After incubation for 30 minutes with secondary antibody, the specimens were visualized by DAB treatment. Sections were lightly counterstained with hematoxylin to enable visualization of nuclei.
Newborn NSG pups received 0.3-0.5×10^6 human BM cells intrahepatically. Beginning on day 17 or 27, the recipients received 5 intraperitoneal injections of echinomycin, daily at 10 μg/kg. Following 2 days of rest, another 5 intraperitoneal injections of echinomycin were administered at the same dose, once per day. The second round of treatment was performed following 5 days of rest from the prior round of treatment, using the same dose once every other day for 10 total treatments.
To better understand the importance of HIF-1α in the therapy of GvHD, the effect of HIF-1α inhibition was examined. Newborn pups were transplanted with 0.5×10^6 human BM cells via intra-hepatic injection. Twenty-seven days after transplantation, mice were treated with 10 μg/kg of echinomycin for a total of 20 treatments. […]

HIF-1α [4] = experiment: Western blot of human HIF-1α in spleen cells from GvHD mice after echinomycin; format: in vivo; settings: echinomycin-treated GvHD mice compared to vehicle controls
Source text: as §1
To test the significance of HIF-1α accumulation, GvHD recipient mice were treated with echinomycin, a selective inhibitor of HIF-1α. […] Further, spleen cells from GvHD mice were isolated and human HIF-1α protein levels from echinomycin-treated mice and vehicle controls were measured by western blot analysis. […]

Structure (SMILES): CS[C@H]1SC[C@H]2C(=O)N(C)[C@@H](C(C)C)C(=O)OC[C@@H](NC(=O)c3cnc4ccccc4n3)C(=O)N[C@@H](C)C(=O)N(C)[C@@H]1C(=O)N(C)[C@@H](C(C)C)C(=O)OC[C@@H](NC(=O)c1cnc3ccccc3n1)C(=O)N[C@@H](C)C(=O)N2C [echinomycin]
- proportion of Tregs (FoxP3+ cells within CD4 T cell subset) [1]: no apparent difference
- proportion of Tregs (FoxP3+ cells within CD4 T cell subset) ([1]; listed as Echinomycin): does not expand human Treg
- HIF-1α protein in HIF-1α+ T cells of spleen (FACS) (HIF-1α [2]; single dose of 100 μg/kg echinomycin, overnight): lost HIF-1α protein overnight
- T cell frequencies (HIF-1α [2]; single dose of echinomycin): largely unaffected
- adverse reactions towards hematopoietic stem cells [3]: without adverse reactions
- efficacy in experimental leukemia and lymphoma [3]: effective in treating experimental leukemia and lymphoma
- median survival (humanized GvHD mice; 0.3×10^6 human BM cells, treatment started day 17, 10 μg/kg i.p.): 119 days
- survival during the treatment period (humanized GvHD mice; 0.5×10^6 BM cells, 10 μg/kg, 20 treatments from day 27, all vehicle treated mice died): survived
- reduction of number of human leukocytes in the peripheral blood (humanized GvHD mice; 0.5×10^6 human BM cells, 10 μg/kg i.p. from day 27, over 5 weeks): more than 10 fold
- median survival (humanized GvHD mice; 0.5×10^6 human BM cells, treatment started day 27, 10 μg/kg i.p.): 99 days
- life span (Kaplan-Meier survival curve) compared with vehicle (humanized GvHD mice; 3×10^5 or 5×10^5 BM cells, regimen of FIG. 5 Panel A): significantly prolonged life span
- mice protected against lethal GvHD (humanized GvHD mice; continuous treatment of echinomycin): ~100%
- clinical symptoms (skin, hair) (humanized GvHD mice; one treated mouse, after two weeks of treatments, 10 μg/kg from day 27): regained smooth skin with visible regrowth of hair
- human CD3+ T cells in organs (IHC) (humanized GvHD mice; skin, intestine, liver and lung, 10 μg/kg i.p. from day 27, day 75): elimination of T cells from all major organs; also recorded: significant reduction of CD3^+ cells
- life span longer than that of mice treated starting at Day 27 (humanized GvHD mice; treatment started day 17 vs day 27): 20 days
- HIF-1α protein levels in spleen cells (western blot) (HIF-1α [4]): significantly decreased
